Reference: patent US20120322685A1, “DEVICE FOR COLLECTING AND ANALYZING MIGRATORY TUMOR CELLS” (priority 2010, published 2012)

Columns and labels:
[1] = system: Human lung tumors heterotransplanted into nude mice; assay: in vivo invasion assay, chemotaxis-based cell collection into needles, human lung tumor heterotransplants; conditions: needles containing 50 nM Heregulin; first mouse to mouse transplant
From the text: Therefore, an in vivo invasion assay was created in which three needles (microneedles ˜100 um in diameter) containing matrigel and various growth factors are placed independently with microscopic precision, using a specially designed micromanipulator guided device, into the primary tumor for chemotaxis-based cell collection in vivo [3]. One needle contains control conditions (usually no ligand or an inhibitor), and the other two are identical. […] Fetal serum was also sufficient but this required signaling by the EGF receptor again implicating the EGF receptor. Furthermore, CSF-1 was also sufficient for cell collection. […] Migration and collection was directly correlated with macrophage density in the mammary gland, stage of progression to malignancy (only background levels of cells, <200 cells, were collected from normal mammary glands and adenoma stage tumors compared with carcinoma stage tumors, ˜1000 cells) and the presence of CSF1 in the tumor was required for cell collection as shown using mouse models with either decreased (op/op) or increased (tet on CSF-1) CSF-1 expression that regulates macrophage recruitment to the mammary gland and metastasis. […] Furthermore, the motility of tumor cells and intravasation occurs preferentially in association with macrophages. […]

[2] = system: MDA-MB-231 derived mammary tumors; assay: in vivo invasion assay, MDA-MB-231 derived mammary tumors; design: species or system human tumor xenograft in SCID mice tumor xenograft in SCID mice; conditions: MDA-MB-231 tumors in mammary fat pads of SCID mice; FIG. 1C
From the text: Therefore, an in vivo invasion assay was created in which three needles (microneedles ˜100 um in diameter) containing matrigel and various growth factors are placed independently with microscopic precision, using a specially designed micromanipulator guided device, into the primary tumor for chemotaxis-based cell collection in vivo [3]. One needle contains control conditions (usually no ligand or an inhibitor), and the other two are identical. […] Fetal serum was also sufficient but this required signaling by the EGF receptor again implicating the EGF receptor. Furthermore, CSF-1 was also sufficient for cell collection. […]
Mammary tumors derived by injecting the human cell line MDA-MB-231 into a mammary fat pad of mice were used in the in vivo invasion assay. […] The involvement of EGF and CSF1 in carcinoma cell invasion has been analyzed from primary breast tumors derived from the injection of MDA-MB-231 cells into the mammary fat pads of SCID mice. […]

Molecule | fold more cells collected in needles as compared to needles with buffer alone [1] | CSF1-mediated collection of invasive cells (tumor cell and macrophage invasion) [2] | EGF-mediated collection of invasive cells (tumor cell and macrophage invasion) [2]
Heregulin [reference compound] | 2 fold |  | 
COc1cc2ncnc(Nc3ccc(F)c(Cl)c3)c2cc1OCCCN1CCOCC1 [Iressa] |  | inhibited | inhibited
